Measurements reported in US8344028B2, “Gamma-amino-butyric acid derivatives as GABAB receptor ligands” (XenoPort, Inc., priority 2009, dated 2013).

Molecular target: GABAB receptor (Homo sapiens, UniProt Q9UBS5)
Experiment: GABAB receptor agonist or partial agonist activity by binding, electrophysiology, cAMP and/or Ca2+ assay methods (Examples 83-86)
Format: cell-based
Procedure: An assay using rat cerebral cortex membranes was used to determine the affinity of GABAB receptor ligands for the GABAB receptor.
An assay buffer of 50 mM Tris pH 7.4 was prepared with 100 μM of isoguvacine, to block GABAA interactions. The assay buffer with isoguvacine was used for dilution of membranes, compounds, and radiolabel.
Rat cerebral cortex membranes were diluted in assay buffer at 1 mg/mL and aliquoted into a 96-well plate at 900 μL/well. Buffer or test compound were added at 20-times final concentration in the buffer at 50 μL/well. Membranes and test compounds or buffer were incubated for 10 min. at room temperature. Radiolableled [S—(R*,R*)]-[3-[[1-(3,4-dichlorophenyl)ethyl]amino]-2-hydroxypropyl](cyclohexylmethyl) phosphinic acid (CGP54626) was then added at 50 μL/well in the buffer at 1-10 nM concentration in 50 μl. […] The assay mixture was filtered using Brandell filtration apparatus and GFB filters, washed twice with 3 mL of 4° C., 50 mM Tris pH 7.4, buffer without isoguvacine. The filters were then dried at room temperature and the dried filters punched out and placed in individual vials. Three (3) mL of scintillation fluid was added to each vial and the radiolabel counted on the scintillation counter. The inverse amount of radiolabel was indicative of binding of a test compound to the GABAB receptor.
The following procedure was used to determine the level of intracellular cAMP. Recombinant HEK cells expressing the GABAB R1a2 receptor were used in the experiments. cAMP levels were measured using a cAMP XS^+ HitHunter™ Chemiluminescence Assay Kit (90-0075-02, GE Healthcare Biosciences Corp.). Cells were seeded overnight at 5,000 cells per well, in black, clear bottom 96-well plates. The following morning, cells were washed twice with 100 μL PBS per well. Forskolin was weighed out and dissolved in DMSO to a final concentration 100 mM. One-hundred (100) μM forskolin solutions were prepared in PBS with and without test compound at 1-times final concentration. Thirty (30) μL of the test solutions were added to the wells and incubated for 1 h at room temperature. The cAMP concentration was determined according to the protocol described in the cAMP assay kit, maintaining the plate at room temperature and in the dark. […] Each well was read for 6 seconds. The untransformed data was then analyzed.
The following procedure was used to determine the GABAB receptor agonist activity of a compound as reflected by activation of Ca^2+ signaling. HEK TREx cells expressing GABABR1a2 under tetracycline induction control, and Gqi chimeric protein (expressed constitutively), allowing GABABR coupling through the Ca^2+ signaling pathway were used in the experiments.
Cells were seeded in media containing tetracycline overnight at 100,000 cells/well, in black, clear-bottom, 96-well plates. The following morning, cells were washed twice with 100 μL HBSS buffer per well. Fluorescent Ca^2+ indicator dye was prepared using the materials and procedure described in the F362056 Fluo-4 NW Calcium Assay Kit (Invitrogen, Carlsbad, Calif.). Ten (10) mL of kit buffer and 100 μl of kit Probenecid were added to individual kit dye vials, and rolled back and forth several times to dissolve the dye. Cells were then loaded into the dye solution at 50 μL per well. The cells and dye were incubated for 30 min at 37° C., and then incubated for an additional 30 min at room temperature in the dark. Test compounds are dissolved in HBSS buffer at twice final concentration. Duplicate wells were used for each unique condition. Solution containing the test compound was added to the wells using a FLEXStation II (Molecular Devices, Sunnyvale, Calif.). Using the instrument in kinetic mode in which each well was read every 2 sec over a total collection time of 50 sec fluorescence was measured using an excitation wavelength 494 nm and a detection wavelength of 516 nm. A normalized fluorescence value for each well was calculated using the following procedure.

Sequence of GABAB receptor (Q9UBS5 20-961): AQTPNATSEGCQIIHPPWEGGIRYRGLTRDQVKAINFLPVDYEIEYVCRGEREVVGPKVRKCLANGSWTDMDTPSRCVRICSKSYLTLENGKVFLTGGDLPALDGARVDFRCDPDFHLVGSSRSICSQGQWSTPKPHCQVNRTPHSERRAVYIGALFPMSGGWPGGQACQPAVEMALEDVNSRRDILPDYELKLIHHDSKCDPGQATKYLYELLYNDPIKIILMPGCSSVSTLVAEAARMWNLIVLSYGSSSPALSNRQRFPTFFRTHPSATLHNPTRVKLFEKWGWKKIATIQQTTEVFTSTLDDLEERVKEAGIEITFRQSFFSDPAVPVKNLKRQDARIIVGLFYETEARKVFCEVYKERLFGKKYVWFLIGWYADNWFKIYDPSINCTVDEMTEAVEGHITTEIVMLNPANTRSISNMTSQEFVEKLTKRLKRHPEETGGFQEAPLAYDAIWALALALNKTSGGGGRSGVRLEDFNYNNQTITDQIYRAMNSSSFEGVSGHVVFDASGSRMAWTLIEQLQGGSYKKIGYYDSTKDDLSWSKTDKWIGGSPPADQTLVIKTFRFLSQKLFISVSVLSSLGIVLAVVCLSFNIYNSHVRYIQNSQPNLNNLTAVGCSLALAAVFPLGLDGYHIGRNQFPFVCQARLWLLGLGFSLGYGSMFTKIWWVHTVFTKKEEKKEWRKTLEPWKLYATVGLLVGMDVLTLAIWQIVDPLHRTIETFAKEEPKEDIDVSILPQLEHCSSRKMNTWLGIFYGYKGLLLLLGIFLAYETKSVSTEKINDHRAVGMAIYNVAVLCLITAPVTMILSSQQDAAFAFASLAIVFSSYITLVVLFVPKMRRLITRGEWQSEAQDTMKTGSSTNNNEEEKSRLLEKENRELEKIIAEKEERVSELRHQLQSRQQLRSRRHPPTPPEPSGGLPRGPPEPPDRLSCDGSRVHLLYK
Sequence of GABAB receptor (O75899 42-941 partner): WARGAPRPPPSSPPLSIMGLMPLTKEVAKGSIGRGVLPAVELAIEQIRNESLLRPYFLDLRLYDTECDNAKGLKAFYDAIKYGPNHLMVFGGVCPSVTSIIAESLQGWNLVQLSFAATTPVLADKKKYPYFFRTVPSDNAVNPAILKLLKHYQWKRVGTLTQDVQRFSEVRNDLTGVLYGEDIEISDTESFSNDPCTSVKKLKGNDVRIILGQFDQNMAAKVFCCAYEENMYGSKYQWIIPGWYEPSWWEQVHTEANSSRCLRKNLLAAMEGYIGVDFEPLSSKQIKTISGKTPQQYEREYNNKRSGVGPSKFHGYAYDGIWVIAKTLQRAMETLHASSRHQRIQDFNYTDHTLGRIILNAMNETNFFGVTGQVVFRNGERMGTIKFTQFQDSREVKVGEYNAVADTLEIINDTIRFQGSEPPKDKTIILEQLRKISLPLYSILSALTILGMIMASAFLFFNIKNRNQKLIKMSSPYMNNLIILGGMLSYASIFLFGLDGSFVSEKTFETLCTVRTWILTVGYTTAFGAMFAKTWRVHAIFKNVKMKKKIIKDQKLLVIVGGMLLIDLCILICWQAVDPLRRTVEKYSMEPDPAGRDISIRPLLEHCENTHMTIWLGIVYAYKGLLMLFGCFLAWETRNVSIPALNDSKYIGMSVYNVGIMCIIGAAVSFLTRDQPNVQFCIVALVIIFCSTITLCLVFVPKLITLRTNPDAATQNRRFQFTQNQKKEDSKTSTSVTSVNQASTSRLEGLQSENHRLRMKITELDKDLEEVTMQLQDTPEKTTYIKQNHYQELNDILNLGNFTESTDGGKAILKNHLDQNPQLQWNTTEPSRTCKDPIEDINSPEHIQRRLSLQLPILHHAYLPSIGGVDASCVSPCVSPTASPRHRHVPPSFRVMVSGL

Row | Structure (SMILES) | GABAB receptor agonist or partial agonist activity
1 | Cl.NC[C@H](CC(=O)O)c1ccc(Cl)c(/C=C/c2cccc(C(=O)O)c2)c1 [3-((1E)-2-{5-[(1R)-2-amino-1-(carboxymethyl)ethyl]-2-chlorophenyl}vinyl)benzoic acid hydrochloride] | agonist or partial agonist activity
2 | COc1cncc(-c2cc(C(CN)CC(=O)O)ccc2Cl)c1.Cl (stereo not drawn) [4-amino-3-[4-chloro-3-(5-methoxy(3-pyridyl))phenyl]butanoic acid hydrochloride] | agonist or partial agonist activity
3 | Cl.NC[C@H](CC(=O)O)c1ccc(Cl)c(NCc2ccco2)c1 [(3R)-4-amino-3-{4-chloro-3-[(2-furylmethyl)amino]phenyl}butanoic acid hydrochloride] | agonist or partial agonist activity
4 | Cl.NC[C@H](CC(=O)O)c1ccc(Cl)c(OCc2cccc(C(=O)O)c2)c1 [3-({5-[(1R)-2-amino-1-(carboxymethyl)ethyl]-2-chlorophenoxy}methyl)benzoic acid hydrochloride] | agonist or partial agonist activity
5 | Cn1cncc1CNc1cc([C@H](CN)CC(=O)O)ccc1Cl [Example 59, (3R)-4-Amino-3-(4-chloro-3-{[(1-methylimidazol-5-yl)methyl]amino}phenyl)butanoic acid] | agonist or partial agonist activity
6 | Cl.NC[C@H](CC(=O)O)c1ccc(Cl)c(NCc2ccncc2Cl)c1 [(3R)-4-amino-3-(4-chloro-3-{[(3-chloro(4-pyridyl))methyl]amino}phenyl)butanoic acid hydrochloride] | agonist or partial agonist activity
7 | NC[C@H](CC(=O)O)c1ccc(Cl)c(NC(=O)c2ccccn2)c1 [(3R)-4-amino-3-[4-chloro-3-(2-pyridylcarbonylamino)phenyl]butanoic acid] | agonist or partial agonist activity
8 | Cl.N#Cc1cccc(-c2cc([C@H](CN)CC(=O)O)ccc2Cl)c1F [(3R)-4-amino-3-[4-chloro-3-(3-cyano-2-fluorophenyl)phenyl]butanoic acid hydrochloride] | agonist or partial agonist activity
9 | NC[C@H](CC(=O)O)c1cc(Br)c(Cl)c(-c2cc(Cl)cc(C(=O)O)c2)c1 [3-{5-[(1R)-2-amino-1-(carboxymethyl)ethyl]-3-bromo-2-chlorophenyl}-5-chlorobenzoic acid] | agonist or partial agonist activity
10 | Cl.NC[C@H](CC(=O)O)c1ccc(Cl)c(NCc2ccc(F)cc2)c1 [(3R)-4-amino-3-(4-chloro-3-{[(4-fluorophenyl)methyl]amino}phenyl)butanoic acid hydrochloride] | agonist or partial agonist activity
11 | CN(Cc1ccccc1)c1cc([C@H](CN)CC(=O)O)ccc1Cl.Cl [(3R)-4-amino-3-{4-chloro-3-[methylbenzylamino]phenyl}butanoic acid hydrochloride] | agonist or partial agonist activity
12 | CC(C)(C)Oc1ccc(CNc2cc([C@H](CN)CC(=O)O)ccc2Cl)cc1.Cl [(3R)-4-amino-3-[3-({[4-(tert-butoxy)phenyl]methyl}amino)-4-chlorophenyl]butanoic acid hydrochloride] | agonist or partial agonist activity
13 | Cl.NC[C@H](CC(=O)O)c1ccc(Cl)c(-c2ccc(C(=O)O)cc2Cl)c1 [Example 44, 4-{5-[(1R)-2-Amino-1-(carboxymethyl)ethyl]-2-chlorophenyl}-3-chlorobenzoic acid hydrochloride] | agonist or partial agonist activity
14 | Cl.NC[C@H](CC(=O)O)c1ccc(Cl)c(-c2ccccc2C(=O)O)c1 [2-{5-[(1R)-2-amino-1-(carboxymethyl)ethyl]-2-chlorophenyl}benzoic acid hydrochloride] | agonist or partial agonist activity
15 | NC[C@H](CC(=O)O)c1ccc(Cl)c(NCCc2ccccc2)c1 [(3R)-4-amino-3-{4-chloro-3-[(2-phenylethyl)amino]phenyl}butanoic acid] | agonist or partial agonist activity
16 | Cl.N#Cc1cc(Cl)cc(-c2cc([C@H](CN)CC(=O)O)ccc2Cl)c1 [(3R)-4-amino-3-[4-chloro-3-(5-chloro-3-cyanophenyl)phenyl]butanoic acid hydrochloride] | agonist or partial agonist activity
17 | Cl.N#Cc1ccc(C(=O)O)cc1-c1cc([C@H](CN)CC(=O)O)ccc1Cl [3-{5-[(1R)-2-amino-1-(carboxymethyl)ethyl]-2-chlorophenyl}-4-cyanobenzoic acid hydrochloride] | agonist or partial agonist activity
18 | Cl.N#Cc1cc(O)cc(-c2cc([C@H](CN)CC(=O)O)ccc2Cl)c1 [(3R)-4-amino-3-[4-chloro-3-(3-cyano-5-hydroxyphenyl)phenyl]butanoic acid hydrochloride] | agonist or partial agonist activity
19 | Cl.NC[C@H](CC(=O)O)c1ccc(Cl)c(NCc2ccoc2)c1 [Example 64, (3R)-4-Amino-3-{4-chloro-3-[(3-furylmethyl)amino]phenyl}butanoic acid hydrochloride] | agonist or partial agonist activity
20 | CN(C(=O)c1ccccc1)c1cc([C@H](CN)CC(=O)O)ccc1Cl.Cl [(3R)-4-amino-3-[4-chloro-3-(N-methylphenylcarbonylamino)phenyl]butanoic acid hydrochloride] | agonist or partial agonist activity
21 | Cl.NC[C@H](CC(=O)O)c1ccc(Cl)c(-c2ccncc2)c1 [(3R)-4-amino-3-(4-chloro-3-(4-pyridyl)phenyl)butanoic acid hydrochloride] | agonist or partial agonist activity
22 | Cl.NC[C@H](CC(=O)O)c1ccc(Cl)c(-c2ccc(O)c(Cl)c2)c1 [(3R)-4-amino-3-[4-chloro-3-(3-chloro-4-hydroxyphenyl)phenyl]butanoic acid hydrochloride] | agonist or partial agonist activity
23 | Cl.NC[C@H](CC(=O)O)c1ccc(Cl)c(-c2ccc(Cl)cc2Cl)c1 [(3R)-4-amino-3-[4-chloro-3-(2,4-dichlorophenyl)phenyl]butanoic acid hydrochloride] | agonist or partial agonist activity
24 | Cl.NC[C@H](CC(=O)O)c1ccc(Cl)c(-c2cnccc2C(=O)O)c1 [3-{5-[(1R)-2-amino-1-(carboxymethyl)ethyl]-2-chlorophenyl}pyridine-4-carboxylic acid hydrochloride] | agonist or partial agonist activity
25 | Cl.NC[C@H](CC(=O)O)c1ccc(Cl)cc1C(=O)c1ccccc1 [Example 11, (3R)-4-Amino-3-[4-chloro-2-(phenylcarbonyl)phenyl]butanoic acid hydrochloride] | agonist or partial agonist activity
26 | Cl.NC[C@H](CC(=O)O)c1ccc(Cl)c(-c2ccc(C(=O)O)cc2)c1 [Example 24, 4-{5-[(1R)-2-Amino-1-(carboxymethyl)ethyl]-2-chlorophenyl}benzoic acid hydrochloride] | agonist or partial agonist activity
27 | Cl.NC[C@H](CC(=O)O)c1ccc(Cl)c(Cc2ccc(C(=O)O)cc2)c1 [4-({5-[(1R)-2-amino-1-(carboxymethyl)ethyl]-2-chlorophenyl}methyl)benzoic acid hydrochloride] | agonist or partial agonist activity
